{"source": "patent US20140105921A1", "about": "“Prodrugs of Peptide Epoxy Ketone Protease Inhibitors” (Onyx Therapeutics, Inc., priority 2012, published 2014)", "test": "In vivo mouse PK of Compound A and PEG prodrugs", "conditions": "for [Cmpd A]: BLOQ = below level of quantitation", "data": [{"smiles": "CC(C)C[C@H](NC(=O)[C@H](CCc1ccccc1)NC(=O)CN1CCOCC1)C(=O)N[C@@H](Cc1ccccc1)C(=O)N[C@@H](CC(C)C)C(=O)[C@@]1(C)CO1", "note": "[Cmpd A, (S)-4-methyl-N—((S)-1-(((S)-4-methyl-1-((R)-2-methyloxiran-2-yl)-1-oxopentan-2-yl)amino)-1-oxo-3-phenylpropan-2-yl)-2-((S)-2-(2-morpholinoacetamido)-4-phenylbutanamido)pentanamide]", "values": [{"measurement": "[Cmpd A]", "setting": "Time 4 hr", "value": "BLOQ"}, {"measurement": "[Cmpd A]", "setting": "Time 6 hr", "value": "BLOQ"}, {"measurement": "[Cmpd A]", "setting": "Time 24 hr", "value": "BLOQ"}, {"measurement": "concentration at 1 hr", "setting": "plasma, Time 1 hr, read-out: [Cmpd A]", "value": 8, "unit": "nM"}]}]}
